ChEMBL document CHEMBL1212929, “Glucosylated deferiprone and its brain uptake: implications for developing glucosylated hydroxypyridinone analogues intended to cross the blood-brain barrier” (J Med Chem, 2010)

How the values were obtained:
[1] = Biodistribution in Dunkin-Hartley guinea pig brain parenchyma at 800 uM, iv after 20 mins using [3H]mannitol vascular space marker by scintillation counting; assay type: ADME, organism-based, Cavia porcellus; details: in vivo
[2] = Biodistribution in Dunkin-Hartley guinea pig brain at 800 uM, iv after 20 mins using [3H]mannitol vascular space marker by scintillation counting; assay type: ADME, organism-based, Cavia porcellus; details: in vivo

Row | SMILES | Drug uptake [1] | Drug uptake [2]
1 | Cc1c(O[C@@H]2O[C@H](CO)[C@@H](O)[C@H](O)[C@H]2O)c(=O)ccn1C | < 0.001 mL/g | < 0.001 mL/g
2 | Cc1c(O)c(=O)ccn1C [DEFERIPRONE] | 0.044 mL/g | 0.052 mL/g
